Test results as given in ChEMBL document CHEMBL3045723, “Synthesis of novel 3-(5-sulfanyl-1,3,4-oxadiazol-2-yl)-2H-chromen-2-one condensed s-triazinyl piperazines and piperidines as antimicrobial agents” (2012).
In brackets after ≈: the same amount, converted by molar mass.

How the values were obtained:
Format in all cases: functional
Candida albicans [1] = test: Antifungal activity against Candida albicans MTCC 183 after 48 hr; details: MTCC 183, 48 h
Aspergillus niger [2] = test: Antifungal activity against Aspergillus niger MTCC 282 after 48 hr; details: MTCC 282, 48 h
Candida albicans [3] = test: Antifungal activity against Candida albicans MTCC 183 after 24 hr by agar disk diffusion test
Aspergillus niger [4] = test: Antifungal activity against Aspergillus niger MTCC 282 after 24 hr by agar disk diffusion test
Shigella flexneri [5] = test: Antibacterial activity against Shigella flexneri after 24 hr
Proteus vulgaris [6] = test: Antibacterial activity against Proteus vulgaris MTCC 1771 after 24 hr; details: MTCC 1771, 24 h
Salmonella typhi [7] = test: Antibacterial activity against Salmonella enterica subsp. enterica serovar Typhi MTCC 733 after 24 hr; details: MTCC 733, 24 h
Shigella flexneri [8] = test: Antibacterial activity against Shigella flexneri after 24 hr by agar disk diffusion test
Proteus vulgaris [9] = test: Antibacterial activity against Proteus vulgaris MTCC 1771 after 24 hr by agar disk diffusion test
Salmonella typhi [10] = test: Antibacterial activity against Salmonella enterica subsp. enterica serovar Typhi MTCC 733 after 24 hr by agar disk diffusion test
Klebsiella pneumoniae [11] = test: Antibacterial activity against Klebsiella pneumoniae MTCC 109 after 24 hr by agar disk diffusion test
Pseudomonas aeruginosa [12] = test: Antibacterial activity against Pseudomonas aeruginosa MTCC 741 after 24 hr by agar disk diffusion test
Escherichia coli [13] = test: Antibacterial activity against Escherichia coli MTCC 739 after 24 hr by agar disk diffusion test
Bacillus cereus [14] = test: Antibacterial activity against Bacillus cereus MTCC 619 after 24 hr by agar disk diffusion test
Staphylococcus aureus [15] = test: Antibacterial activity against Staphylococcus aureus MTCC 96 after 24 hr by agar disk diffusion test
Klebsiella pneumoniae [16] = test: Antibacterial activity against Klebsiella pneumoniae MTCC 109 after 24 hr; details: MTCC 109, 24 h
Pseudomonas aeruginosa [17] = test: Antibacterial activity against Pseudomonas aeruginosa MTCC 741
Escherichia coli [18] = test: Antibacterial activity against Escherichia coli MTCC 739 after 24 hr; details: MTCC 739, 24 h
Bacillus cereus [19] = test: Antibacterial activity against Bacillus cereus MTCC 619 after 24 hr; details: MTCC 619, 24 h
Staphylococcus aureus [20] = test: Antibacterial activity against Staphylococcus aureus MTCC 96 after 24 hr; details: MTCC 96, 24 h

| Structure (SMILES) | MIC (Candida albicans [1]) [µg/mL] | MIC (Aspergillus niger [2]) [µg/mL] | inhibition zone (IZ) (Candida albicans [3]) [mm] | inhibition zone (IZ) (Aspergillus niger [4]) [mm] | MIC (Shigella flexneri [5]) [µg/mL] | MIC (Proteus vulgaris [6]) [µg/mL] | MIC (Salmonella typhi [7]) [µg/mL] | inhibition zone (IZ) (Shigella flexneri [8]) [mm] | inhibition zone (IZ) (Proteus vulgaris [9]) [mm] | inhibition zone (IZ) (Salmonella typhi [10]) [mm] | inhibition zone (IZ) (Klebsiella pneumoniae [11]) [mm] | inhibition zone (IZ) (Pseudomonas aeruginosa [12]) [mm] | inhibition zone (IZ) (Escherichia coli [13]) [mm] | inhibition zone (IZ) (Bacillus cereus [14]) [mm] | inhibition zone (IZ) (Staphylococcus aureus [15]) [mm] | MIC (Klebsiella pneumoniae [16]) [µg/mL] | MIC (Pseudomonas aeruginosa [17]) [µg/mL] | MIC (Escherichia coli [18]) [µg/mL] | MIC (Bacillus cereus [19]) [µg/mL] | MIC (Staphylococcus aureus [20]) [µg/mL] |
| --- | --- | --- | --- | --- | --- | --- | --- | --- | --- | --- | --- | --- | --- | --- | --- | --- | --- | --- | --- | --- |
| O=c1oc2ccccc2cc1-c1nnc(Sc2nc(Oc3cccc4cccnc34)nc(N3CCN(C(c4ccccc4)c4ccccc4)CC3)n2)o1 | 100 (≈ 139 µM) | 100 (≈ 139 µM) | <10 | 11 | 100 (≈ 139 µM) | 100 (≈ 139 µM) | 100 (≈ 139 µM) | 14 | <10 | 12 | 14 | <10 | 13 | 14 | 18 | 100 (≈ 139 µM) | 100 (≈ 139 µM) | 100 (≈ 139 µM) | 100 (≈ 139 µM) | 100 (≈ 139 µM) |
| O=c1oc2ccccc2cc1-c1nnc(Sc2nc(Oc3cccc4cccnc34)nc(N3CCN(C(c4ccccc4)c4ccc(Cl)cc4)CC3)n2)o1 (stereo not given) | 50 (≈ 66.4 µM) | 50 (≈ 66.4 µM) | 22 | 22 | 100 (≈ 133 µM) | 100 (≈ 133 µM) | 100 (≈ 133 µM) | 16 | 20 | 19 | 19 | 16 | 25 | 21 | 20 | 100 (≈ 133 µM) | 100 (≈ 133 µM) | 25 (≈ 33.2 µM) | 50 (≈ 66.4 µM) | 50 (≈ 66.4 µM) |
| O=c1oc2ccccc2cc1-c1nnc(Sc2nc(Oc3cccc4cccnc34)nc(N3CCN(c4ncccn4)CC3)n2)o1 | 100 (≈ 159 µM) | 100 (≈ 159 µM) | 17 | 16 | 50 (≈ 79.3 µM) | 100 (≈ 159 µM) | 100 (≈ 159 µM) | 22 | 16 | 18 | 22 | 18 | 19 | 22 | 21 | 25 (≈ 39.6 µM) | 100 (≈ 159 µM) | 100 (≈ 159 µM) | 25 (≈ 39.6 µM) | 50 (≈ 79.3 µM) |
| O=c1oc2ccccc2cc1-c1nnc(Sc2nc(Oc3cccc4cccnc34)nc(N3CCN(c4ccc(F)cc4)CC3)n2)o1 | 50 (≈ 77.3 µM) | 100 (≈ 155 µM) | 22 | 21 | 100 (≈ 155 µM) | 50 (≈ 77.3 µM) | 100 (≈ 155 µM) | 17 | 21 | 19 | 16 | 21 | 23 | 21 | 22 | 100 (≈ 155 µM) | 50 (≈ 77.3 µM) | 25 (≈ 38.7 µM) | 50 (≈ 77.3 µM) | 25 (≈ 38.7 µM) |
| CC(=O)N1CCN(c2nc(Oc3cccc4cccnc34)nc(Sc3nnc(-c4cc5ccccc5oc4=O)o3)n2)CC1 | 100 (≈ 168 µM) | 100 (≈ 168 µM) | 13 | 16 | 25 (≈ 42 µM) | 100 (≈ 168 µM) | 12.5 (≈ 21 µM) | 23 | 18 | 22 | 13 | 23 | 15 | 22 | 20 | 100 (≈ 168 µM) | 12.5 (≈ 21 µM) | 100 (≈ 168 µM) | 25 (≈ 42 µM) | 50 (≈ 84.1 µM) |
